These results are taken from paper PMC12321279, “Novel 4,5‐Dihydrothiazole‐Phenylpiperazine Derivatives: Synthesis, Docking Studies and Pharmacological Evaluation as Serotonergic Agents” (Chemmedchem, 2025).

Molecules are shown by their SMILES.

Data set [1] deals with mice. In words: Forced swim test (FST, Porsolt's test). The class given is in vivo. The procedure:
(§1) The tests were performed on male white mice of the Albino Swiss strain, whose weight was between 24 and 30 g in Experimental Medicine Center, Medical University of Lublin, Poland. The animals were housed (four/five per cage). Before conducting the experimental tests, the animals were subjected to an adaptation that lasted seven days. This consisted of keeping them in a room with relatively constant conditions: a temperature of 22 ± 1 °C, a humidity of 55 ± 5% and lighting that mimicked the natural day and night rhythm (12 h/12 h). Constant access to food and water was provided. Standard feed—LSM Motycz pelleted feed—and tap water were used. Mice were randomly allocated to study groups. Each group was represented by 8–10 animals, depending on the research schedule. The experiments were performed according to the procedures set out in the regulations for animal experiments: National Institute of Health Guidelines for the Care and Use of Laboratory Animals (8th edition) and to the European Community Council Directive for the Care and Use of Laboratory Animals of 22 September 2010 (2010/63/EU). The study was approved by the Local Ethical Committee in Lublin (number of ethical approvals: 27/2023). Tested compounds: FG‐1, FG‐4, FG‐5, FG‐6, FG‐7, FG‐8, and FG‐18 were finely ground in mortars with the addition of the emulsifier Tween‐80. A suspension was obtained, which was then diluted with aqueous solution of 0.5% methylcellulose (tylose). The mixture was then administered intraperitoneally (i.p.) to the animals 60 min before the start of the experiments. Animals in the control groups received a 0.5% tylose solution. All substances were administered via the same route of administration in appropriate dose and volume of 0.1 mL per 10 g of animal body weight. Prior to the administration of the drug, the animals were weighed, during the interval between tests, they were provided with food, water, and constant living conditions.
The study was carried out using the test proposed by R. Porsolt.^[ [46] ^] The method is based on the observation of an animal forced to swim in a confined space from which there is no escape. After an initial period of vigorous attempts to get out, the animal finally gives up on escaping. The test consists of immersing the mouse individually in a cylinder (diameter 10 cm, height 25 cm) filled with water (at a temperature of 23–25 °C) to a height of 10 cm for 6 min. In this test, two parameters were measured: immobility time in seconds (s), understood as the state in which the mouse makes only those movements that are necessary to keep the head above water, and the latency to the first immobility (s). Measurements were taken during the last 4 min of the experiment, starting from the 2nd to the 6th minute. At the end of each session, the animals were removed from the cylinders, dried with a towel, and placed near a heater until completely dry. Antidepressants typically show increased latency and decreased immobility in this test.

For data set [2], the system named is mice. As to the kind of experiment: MK‐801‐induced hyperactivity test. The conditions noted are these: 30 mg/kg i.p. 60 min before test, MK‐801 0.3 mg kg^−1 s.c., 20 min observation. It is filed as in vivo. On the procedure:
as §1, with “conditions. […]” for “conditions.”

Another data set deals with larval zebrafish. In words: Basic locomotor activity of larval zebrafish. The class given is in vivo, zebrafish (Danio rerio). The conditions noted are these: 5 dpf larvae, 20 h incubation at maximum‐tolerated concentration (Figure 12), 30 min tracking. The procedure:
All experiments were conducted on zebrafish (Danio rerio) larvae up to 5 days post fertilization (dpf), therefore, in accordance with current European legislation, ethical permission to conduct assays was not required. However, housing and experimental procedures were performed in compliance with the National Institute of Health Guidelines for the Care and Use of Laboratory Animals and the European Union Directive of 22 September 2010 (2010/63/EU) on protecting animals used for scientific purposes. All efforts were taken to minimize larvae stress and suffering. Larvae were euthanized with an overdose of tricaine ([…]). The zebrafish facility of Experimental Medicine Centre (Medical University of Lublin, Poland) provided wild‐type zebrafish embryos of the AB strain. Embryos as well as larvae were maintained in Petri dishes filled with E3 embryo medium, i.e., fish water (1.5 mM HEPES, pH 7.6; 17.4 mM NaCl; 0.21 mM KCl; 0.12 mM MgSO4; and 0.18 mM Ca (NO3)2). These were maintained under standard, generally accepted housing conditions (temperature 28.5 ± 1 °C, light to dark cycle 14 h to 10 h). Plastic transfer Pasteur pipettes were used to replace medium each day. Before the respective behavioral tests were conducted, larvae at 4 dpf were incubated for 20 h in different arylpiperazine derivatives solutions of maximum‐tolerated concentrations (MCTs), determined during toxicological screening.^[ [30], [32] ^] The control group was exposed to equivalent concentration of DMSO solvent. All locomotor tracking tests were performed at the same period of the day. Basic locomotor activity was measured using an automated tracking device, Daniovision by Noldus, and the total distance traveled was quantified using EthoVision XT software of the same company (Wageningen, the Netherlands) over a 30 min long observation period. Larvae were placed in 48‐well plates, individually (single larva per well), using a plastic transfer pipette. The PTZ‐induced hyperlocomotion (acute seizure assay) was assessed in 5 dpf larval zebrafish (after 20 h incubation with tested derivatives at MCTs). After the incubation, larvae were exposed to an acute dose of PTZ (20 mM). Larval locomotor activity after exposure to PTZ was tracked (Daniovision by Noldus) over 30 mins, after 5‐mins of habituation. Additionally, larval locomotor activity was assessed in response to alternate lighting conditions (lights ON vs. lights OFF). Light intensity under illumination was 100%. Challenge to light/dark conditions lasted 10 min each, twice repeated.^[ [52] ^] Similarly, the data were recorded as the distance traveled (mm) by larvae when exposed to alternating lightning. All experiments were repeated three times, and data pooled. For statistical analysis and figure generation, GraphPad Prism 9.3.1 version (San Diego, CA, USA) was employed, and Grubbs test was applied to identify outliers. Shapiro‐Wilk test was then employed to assess whether data are normally distributed. Moreover, nonparametric ANOVA, Kruskal–Wallis, or Friedman (for repeated measures) test was used to analyze data, with statistical significance level set at p < 0.05. Data are presented as median or median + individual values.

[3] abbreviates: 15 mg kg^−1 i.p. 60 min before test.
Where [4] appears, read: 30 mg kg^−1 i.p. 60 min before test.
The mark [5] stands for this setting: 7.5 mg kg^−1 i.p. 60 min before test.

`O=C(NCCCN1CCN(c2ccccc2C2=NCCS2)CC1)c1ccccn1` [FG‐1, N‐(3‐(4‐(2‐(4,5‐dihydrothiazol‐2‐yl) phenyl) piperazin‐1‐yl) propyl) picolinamide]: the “FST, total duration of immobility” value in the data set on mice [1] (setting [3]) is on record as “significant decrease in immobility”. In the data set with mice [1] (setting [4]), the “FST, latency to first immobility” value is given as “significant increase in latency to first immobility” and the “FST, total duration of immobility” value was “significant decrease in immobility”. In addition, the “MK‐801‐induced hyperactivity” value in the data set with mice [2] is “significant decrease in MK‐801‐induced hyperactivity”. Moreover, in the data set on larval zebrafish, the “basic locomotor activity (total distance traveled)” value (“basic locomotor activity” below) is “decreased”.

For the compound `O=C(NCCCN1CCN(c2ccccc2C2=NCCS2)CC1)c1ccncc1` [FG‐4, N‐(3‐(4‐(2‐(4,5‐dihydrothiazol‐2‐yl) phenyl) piperazin‐1‐yl) propyl) isonicotinamide], the “MK‐801‐induced hyperactivity” value in the data set with mice [2] is “significant decrease in MK‐801‐induced hyperactivity”. In the data set with larval zebrafish, the “basic locomotor activity” value is recorded as “slightly decreased larval activity”.

Turning to `O=C(NCCCN1CCN(c2cccc(C3=NCCS3)c2)CC1)c1ccncc1` [FG‐5, N‐(3‐(4‐(3‐(4,5‐dihydrothiazol‐2‐yl) phenyl) piperazin‐1‐yl) propyl) isonicotinamide], the “FST, total duration of immobility” value in the data set on mice [1] (setting [3]) and with mice [1] (setting [4]) was “significant decrease in immobility” each time. The “FST, latency to first immobility” value in the data set on mice [1] (setting [4]) is reported as “significant increase in latency to first immobility”.

With `O=C(NCCCN1CCN(c2ccc(C3=NCCS3)cc2)CC1)c1ccncc1` [FG‐6, N‐(3‐(4‐(4‐(4,5‐dihydrothiazol‐2‐yl) phenyl) piperazin‐1‐yl) propyl) isonicotinamide], in the data set on mice [1] (setting [5]), the “FST, latency to first immobility” value is listed as “significant increase in latency to first immobility” and the “FST, total duration of immobility” value was “significant decrease in immobility”. In the data set with mice [1] (setting [3]), the “FST, latency to first immobility” value is “significant increase in latency to first immobility” and the “FST, total duration of immobility” value is “significant decrease in immobility”. Besides, the “MK‐801‐induced hyperactivity” value in the data set with mice [2] is reported as “significant decrease in MK‐801‐induced hyperactivity”. In the data set with larval zebrafish, the “basic locomotor activity” value is given as “slightly decreased larval activity”.

Turning to `O=C1C2C3C=CC(C3)C2C(=O)N1OCCCN1CCN(c2ccccc2C2=NCCS2)CC1` (stereo not drawn) [FG‐7, 2‐(3‐(4‐(2‐(4,5‐dihydrothiazol‐2‐yl) phenyl) piperazin‐1‐yl) propoxy)‐3a,4,7,7a‐tetrahydro‐1 H‐4,7‐methanoisoindole‐1,3(2 H)‐dione], in the data set on larval zebrafish, the “basic locomotor activity” value is listed as “slightly decreased larval activity”.

In the case of `O=C1C2C3C=CC(C3)C2C(=O)N1OCCCN1CCN(c2cccc(C3=NCCS3)c2)CC1` (stereo not drawn) [FG‐8, 2‐(3‐(4‐(3‐(4,5‐dihydrothiazol‐2‐yl) phenyl) piperazin‐1‐yl) propoxy)‐3a,4,7,7a‐tetrahydro‐1H‐4,7‐methanoisoindole‐1,3(2H)‐dione], in the data set with mice [1] (setting [4]), the “FST, latency to first immobility” value is listed as “significant increase in latency to first immobility” and the “FST, total duration of immobility” value is “significant decrease in immobility”. In the data set on larval zebrafish, the “basic locomotor activity” value is “slightly decreased larval activity”.

As to `O=C(NCCCN1CCN(c2ccc(C3=NCCS3)cc2)CC1)C1CC2C=CC1C2` (stereo not drawn) [FG‐18, Endo‐ N‐(3‐(4‐(4‐(4,5‐dihydrothiazol‐2‐yl)phenyl)piperazin‐1‐yl)propyl) bicyclo[2.2.1]hept‐5‐ene‐2‐carboxamide], the “basic locomotor activity” value in the data set on larval zebrafish is “decreased”.
